Consider 65 compounds from PubChem BioAssay AID1224921 (Broad Institute, 2016).

SMILES strings stand for the structures. The source made the active and inactive calls. How the calls were made is not given here. A value given as a limit tells only on which side of the number the result lay.

The test system of the test is Clostridioides difficile clinical isolate growth, OD600, 24 h. Description: C. difficile growth inhibition, confirmation, 4-point retest (AID 1224921).

As usually defined, the AC50 is the concentration at which the activity in the assay is half-maximal. Turning to `O=C(C[C@H]1CC[C@@H]2[C@H](COC[C@@H](O)CN2C(=O)Nc2ccc(Cl)c(Cl)c2)O1)NCc1ccc(F)cc1`, the AC50 is 2.15 µM. For `COc1ccccc1S(=O)(=O)N(C)C[C@H]1OCc2ccccc2-c2c(n(C)c3ccccc23)C(=O)N([C@H](C)CO)C[C@@H]1C` the value was > 60 µM (inactive); for `CNC(=O)C[C@H]1CC[C@@H]2[C@H](COC[C@@H](O)CN2C(=O)Nc2ccc(Cl)c(Cl)c2)O1`, 8.58 µM. For `CCC(=O)N[C@H]1CC[C@@H](CCNC(=O)Nc2ccc(C(F)(F)F)cc2)O[C@H]1CO`, the AC50 was 2.41 µM. Take `C[C@@H]1CN([C@H](C)CO)C(=O)c2cc(NC(=O)Nc3ccc(C(F)(F)F)cc3)ccc2O[C@@H](C)CCCCO[C@H]1CN(C)Cc1ccccc1`: the AC50 is 6.56 µM. `O=C(C[C@@H]1CC[C@H]2[C@@H](COC[C@@H](O)CN2C(=O)Nc2cc(Cl)cc(Cl)c2)O1)N1CCOCC1`: the AC50 is 10.7 µM. With `CC(=O)N[C@H]1CC[C@H](CCNC(=O)Nc2ccc(C(F)(F)F)cc2)O[C@H]1CO`, the AC50 was 4.52 µM.

Take `O=C(C[C@H]1CC[C@H]2[C@@H](COC[C@H](O)CN2S(=O)(=O)c2ccc(F)cc2)O1)NCC1CCCCC1`: the AC50 is 15.4 µM. The same measure for `C[C@@H]1CN([C@@H](C)CO)C(=O)c2cc(NS(=O)(=O)c3cn(C)cn3)ccc2O[C@@H](C)CCCCO[C@@H]1CN(C)C(=O)Nc1ccc(C(F)(F)F)cc1`: 5.78 µM. Take `COc1ccc(S(=O)(=O)Nc2ccc3c(c2)C(=O)N([C@@H](C)CO)C[C@H](C)[C@@H](CN(C)Cc2ccc4c(c2)OCO4)OCCCC[C@@H](C)O3)cc1`: the AC50 was 6.68 µM.

`C[C@@H]1CCCCO[C@@H](CN(C)CC2CCCCC2)[C@@H](C)CN([C@@H](C)CO)C(=O)c2cc(NC(=O)Nc3ccc(C(F)(F)F)cc3)ccc2O1`: the AC50 is 10.7 µM. For `O=C(C[C@@H]1CC[C@@H]2[C@H](COC[C@@H](O)CN2C(=O)Nc2ccc(Cl)c(Cl)c2)O1)NCc1ccc(F)cc1` the value was 1.87 µM; for `CO[C@H](CN(C)Cc1cc(F)ccc1F)[C@H](C)CN(C(=O)Nc1ccc(C(F)(F)F)cc1)[C@H](C)CO`, 10.3 µM; for `COc1ccccc1S(=O)(=O)N[C@@H]1C=C[C@@H](CC(=O)N2CCCCC2)O[C@H]1CO`, > 60 µM (inactive). For `C[C@H](NC(=O)C[C@H]1CC[C@H]2[C@@H](COC[C@@H](O)CN2C(=O)Nc2cc(Cl)cc(Cl)c2)O1)c1ccccc1` the value was 17.9 µM. The same measure for `O=C(NCC[C@@H]1CC[C@@H](NC(=O)c2cccnc2)[C@H](CO)O1)Nc1ccc(C(F)(F)F)cc1`: 3.16 µM; for `C[C@@H]1CN([C@H](C)CO)C(=O)c2cc(NC(=O)Nc3ccc(C(F)(F)F)cc3)ccc2O[C@@H](C)CCCCO[C@H]1CN(C)Cc1ccc2c(c1)OCO2`: 7.9 µM. With `O=C(C[C@@H]1CC[C@H]2[C@@H](COC[C@@H](O)CN2C(=O)Nc2ccc(Cl)c(Cl)c2)O1)NCc1ccc(F)cc1`, the AC50 was 1.92 µM. For `COc1cccc(C#Cc2ccc([C@H]3[C@@H](CO)N(C(=O)C4CCCCC4)[C@H]3C#N)cc2)c1`, the AC50 was 19 µM. For `O=C(NCC[C@H]1CC[C@H](NC(=O)C2CC2)[C@H](CO)O1)Nc1ccc(C(F)(F)F)cc1` the value was 16 µM; for `CNC(=O)C[C@@H]1CC[C@@H]2[C@H](COC[C@@H](O)CN2C(=O)Nc2ccc(Cl)c(Cl)c2)O1`, 2.31 µM; for `O=C(C[C@@H]1CC[C@H]2[C@@H](COC[C@@H](O)CN2C(=O)Nc2cc(Cl)cc(Cl)c2)O1)NCC1CC1`, 16.2 µM. For `C[C@@H]1CN([C@H](C)CO)C(=O)c2cccc(NC(=O)Nc3ccc(C(F)(F)F)cc3)c2O[C@@H]1CN(C)C(=O)Nc1ccccc1` the value was 32.9 µM; for `O=C(C[C@H]1CC[C@@H]2[C@H](COC[C@@H](O)CN2C(=O)Nc2ccc(Cl)c(Cl)c2)O1)NCc1ccc(Cl)cc1`, 3.67 µM; for `C[C@@H]1CN([C@@H](C)CO)C(=O)c2cc(NC(=O)Nc3ccc(C(F)(F)F)cc3)ccc2O[C@@H](C)CCCCO[C@H]1CN(C)Cc1ccccc1`, 26.9 µM. Turning to `C[C@H](CO)N1C[C@H](C)[C@H](CN(C)C(=O)Nc2cccc3ccccc23)Oc2c(NC(=O)Nc3ccc(C(F)(F)F)cc3)cccc2C1=O`, the AC50 is 31.7 µM.

Consider `CCCNC(=O)C[C@H]1CC[C@H]2[C@@H](COC[C@@H](O)CN2C(=O)Nc2ccc(Cl)c(Cl)c2)O1`, for which the AC50 is 2.78 µM. `O=C(C[C@@H]1CC[C@@H]2[C@H](COC[C@H](O)CN2C(=O)Nc2ccc(C(F)(F)F)cc2)O1)NC1Cc2ccccc2C1`: the AC50 was 19 µM. The same measure for `O=C(C[C@H]1CC[C@H]2[C@@H](COC[C@@H](O)CN2C(=O)Nc2ccc(Cl)c(Cl)c2)O1)NCc1ccc(Cl)c(Cl)c1`: 1.08 µM; for `C[C@@H]1CN([C@@H](C)CO)C(=O)c2cc(NC(=O)Nc3cccc4ccccc34)ccc2O[C@@H](C)CCCCO[C@H]1CN(C)CC1CCCCC1`: 32.1 µM. `O=C(C[C@@H]1CC[C@H]2[C@@H](COC[C@H](O)CN2C(=O)Nc2ccc(Cl)c(Cl)c2)O1)NCc1ccc(F)cc1`: the AC50 was 1.3 µM. The same measure for `O=C(C[C@H]1CC[C@H]2[C@@H](COC[C@@H](O)CN2C(=O)Nc2ccc(Cl)c(Cl)c2)O1)NCc1ccc(Cl)cc1`: 1.03 µM; for `CO[C@H](CN(C)S(=O)(=O)c1cn(C)cn1)[C@H](C)CN(C(=O)Nc1ccc(C(F)(F)F)cc1)[C@H](C)CO`: 6.25 µM; for `O=C(C[C@@H]1CC[C@H]2[C@@H](COC[C@H](O)CN2S(=O)(=O)c2ccccc2)O1)NCC1CCCCC1`: 15.6 µM. For `CO[C@@H]1CN(C)C(=O)c2ccc(NC(=O)Nc3cc(Cl)cc(Cl)c3)cc2OC[C@H](C)NC[C@H]1C`, the AC50 was 7.81 µM. For `CS(=O)(=O)N1[C@H](C#N)[C@@H](c2ccc(C#CC3CCCC3)cc2)[C@@H]1CO` the value was > 70 µM (inactive). Regarding `C[C@H](CO)N1C[C@H](C)[C@H](CN(C)CC2CCCCC2)OCCCC[C@H](C)Oc2ccc(NC(=O)Nc3ccc(C(F)(F)F)cc3)cc2C1=O`, the AC50 is 10.9 µM.

For the compound `O=C(C[C@@H]1CC[C@H]2[C@@H](COC[C@@H](O)CN2C(=O)Nc2ccc(C(F)(F)F)cc2)O1)NCC1CCCCC1`, the AC50 is 3.56 µM.

As to `C[C@@H]1CCCCO[C@H](CN(C)CC2CCCCC2)[C@H](C)CN([C@@H](C)CO)C(=O)c2cc(NC(=O)Nc3ccc(C(F)(F)F)cc3)ccc2O1`, the AC50 was 10.4 µM. For `CO[C@H]1CN(C)C(=O)c2ccc(NC(=O)Nc3ccc(Cl)c(Cl)c3)cc2OC[C@H](C)NC[C@H]1C` the value was 9.83 µM. For `C[C@@H]1CN([C@H](C)CO)S(=O)(=O)c2ccc(C#CCC3CCCC3)cc2O[C@@H]1CN(C)C(=O)CN(C)C` the value was 17.6 µM. For `O=C(C[C@H]1CC[C@H]2[C@@H](COC[C@H](O)CN2C(=O)Nc2ccc(Cl)c(Cl)c2)O1)NCc1ccncc1` the value was 0.575 µM; for `O=C(C[C@H]1CC[C@H]2[C@@H](COC[C@H](O)CN2C(=O)Nc2ccc(Cl)c(Cl)c2)O1)NCc1ccc(F)cc1`, 2.08 µM; for `O=C(NCC[C@@H]1CC[C@H](NC(=O)C2CCCCC2)[C@H](CO)O1)Nc1ccc(Cl)cc1`, 30 µM. On to `CO[C@@H](CN(C)Cc1cc(F)ccc1F)[C@H](C)CN(C(=O)Nc1ccc(C(F)(F)F)cc1)[C@@H](C)CO`, for which the AC50 was 3.71 µM. The same measure for `C[C@@H]1CN([C@@H](C)CO)C(=O)Cc2cc(N(C)C)ccc2O[C@H]1CN(C)Cc1ccc(C(F)(F)F)cc1`: 29.1 µM; for `CO[C@@H](CN(C)C(=O)C1CCOCC1)[C@@H](C)CN(C(=O)Nc1ccc(C(F)(F)F)cc1)[C@@H](C)CO`: 3.66 µM. For `CO[C@@H](CN(C)C(=O)C1CCOCC1)[C@@H](C)CN(C(=O)Nc1ccc(C(F)(F)F)cc1)[C@H](C)CO` the value was 6.17 µM. The same measure for `O=C(C[C@H]1CC[C@@H]2[C@H](COC[C@H](O)CN2C(=O)Nc2ccc(Cl)c(Cl)c2)O1)NCc1ccc(Cl)c(Cl)c1`: below 0.5 µM; for `C/C=C/c1ccc2c(c1)O[C@H](CN(C)C(=O)c1ccc(F)cc1)[C@H](C)CN([C@H](C)CO)S2(=O)=O`: > 60 µM (inactive).

For the compound `CO[C@@H]1CN(C)C(=O)c2cc(NC(=O)Nc3ccc(Cl)c(Cl)c3)ccc2OC[C@H](C)NC[C@H]1C`, the half-maximal activity concentration (AC50) was 6.72 µM. For `CCNC(=O)C[C@H]1CC[C@@H]2[C@H](COC[C@H](O)CN2C(=O)Nc2ccc(C(F)(F)F)cc2)O1`, the AC50 was 3.45 µM.

For the compound `O=C(C[C@H]1CC[C@H]2[C@@H](COC[C@@H](O)CN2C(=O)Nc2ccc(Cl)c(Cl)c2)O1)NCc1ccc(F)cc1`, the AC50 is 1.36 µM. For the compound `O=C(C[C@@H]1CC[C@H]2[C@@H](COC[C@@H](O)CN2C(=O)Nc2ccc(C(F)(F)F)cc2)O1)NCC1CC1`, the AC50 was 3.98 µM. As for `CCC(=O)N[C@H]1CC[C@@H](CCNC(=O)Nc2ccc(C(F)(F)F)cc2)O[C@@H]1CO`, the AC50 was 2.73 µM. For `O=C(C[C@@H]1CC[C@H]2[C@@H](COC[C@@H](O)CN2C(=O)Nc2ccc(Cl)c(Cl)c2)O1)NCc1ccccc1` the value was 1.6 µM.

Consider `CCCNC(=O)Nc1ccc2c(c1)C(=O)N(C)C[C@@H](OC)[C@@H](C)CN(C)[C@H](C)CO2`, for which the AC50 is > 60 µM (inactive). As to `COc1ccc(CN(C)C[C@H]2OCCCC[C@@H](C)Oc3ccc(NC(=O)Nc4ccc(C(F)(F)F)cc4)cc3C(=O)N([C@@H](C)CO)C[C@@H]2C)cc1`, the half-maximal activity concentration (AC50) is 4.74 µM. For the compound `O=C(C[C@@H]1CC[C@@H]2[C@H](COC[C@@H](O)CN2C(=O)Nc2cccc(Cl)c2)O1)N1CCCCC1`, the AC50 is 18.7 µM.

As to `C[C@H]1CN([C@@H](C)CO)C(=O)c2cccc(NC(=O)Nc3ccc(C(F)(F)F)cc3)c2O[C@H]1CN(C)C(=O)Nc1ccc(F)cc1`, the AC50 is 23.4 µM. For `C[C@H]1CN([C@@H](C)CO)S(=O)(=O)c2ccc(C#Cc3ccc(F)cc3)cc2O[C@@H]1CN(C)C` the value was 34.2 µM; for `COc1cccc(C#Cc2ccc([C@@H]3[C@@H](C#N)N(C(=O)C4CCC4)[C@H]3CO)cc2)c1`, > 60 µM (inactive); for `O=C(NCC[C@@H]1CC[C@H](NC(=O)c2cccnc2)[C@H](CO)O1)Nc1ccc(C(F)(F)F)cc1`, 3.01 µM. For `C[C@@H]1CN([C@@H](C)CO)C(=O)c2cccc(NC(=O)Nc3ccc4c(c3)OCO4)c2O[C@@H]1CN(C)Cc1ccc(-c2ccccc2)cc1` the value was 0.665 µM; for `CCNC(=O)C[C@H]1CC[C@H]2[C@@H](COC[C@@H](O)CN2C(=O)Nc2ccc(C(F)(F)F)cc2)O1`, 2.77 µM.
